According to publication PMC9481151, “Discovery of new symmetrical and asymmetrical nitrile-containing 1,4-dihydropyridine derivatives as dual kinases and P-glycoprotein inhibitors: synthesis, in vitro assays, and in silico studies” (Journal of Enzyme Inhibition and Medicinal Chemistry, 2022):

Key:
HT29 = experiment: NCI single dose (10 µM) SRB screen; type: cell-based, human; conditions: colon cancer, 48 h
IGROV1 = experiment: NCI single dose (10 µM) SRB screen; type: cell-based, human; conditions: ovarian cancer, 48 h
NCI-H460 = experiment: NCI single dose (10 µM) SRB screen; type: cell-based, human; conditions: non-small cell lung cancer, 48 h
SW-620 = experiment: NCI single dose (10 µM) SRB screen; type: cell-based, human; conditions: colon cancer, 48 h
CCRF-CEM = experiment: NCI single dose (10 µM) SRB screen; type: cell-based, human; conditions: leukaemia, 48 h
EKVX = experiment: NCI single dose (10 µM) SRB screen; type: cell-based, human; conditions: non-small cell lung cancer, 48 h
Aspergillus flavus = experiment: Agar well diffusion method; conditions: relative to clotrimazole
UO-31 = experiment: NCI single dose (10 µM) SRB screen; type: cell-based, human; conditions: renal cancer, 48 h
MOLT-4 = experiment: NCI single dose (10 µM) SRB screen; type: cell-based, human; conditions: leukaemia, 48 h
SF-539 = experiment: NCI single dose (10 µM) SRB screen; type: cell-based, human; conditions: CNS cancer, 48 h
M14 = experiment: NCI single dose (10 µM) SRB screen; type: cell-based, human; conditions: melanoma, 48 h
SR = experiment: NCI single dose (10 µM) SRB screen; type: cell-based, human; conditions: leukaemia, 48 h
DU-145 = experiment: NCI single dose (10 µM) SRB screen; type: cell-based, human; conditions: prostate cancer, 48 h
KM12 = experiment: NCI single dose (10 µM) SRB screen; type: cell-based, human; conditions: colon cancer, 48 h
786-0 = experiment: NCI single dose (10 µM) SRB screen; type: cell-based, human; conditions: renal cancer, 48 h
NCI-H522 = experiment: NCI single dose (10 µM) SRB screen; type: cell-based, human; conditions: non-small cell lung cancer, 48 h
K-562 = experiment: NCI single dose (10 µM) SRB screen; type: cell-based, human; conditions: leukaemia, 48 h
HCT-15 = experiment: NCI single dose (10 µM) SRB screen; type: cell-based, human; conditions: colon cancer, 48 h
COLO 205 = experiment: NCI single dose (10 µM) SRB screen; type: cell-based, human; conditions: colon cancer, 48 h
HOP-62 = experiment: NCI single dose (10 µM) SRB screen; type: cell-based, human; conditions: non-small cell lung cancer, 48 h
A498 = experiment: NCI single dose (10 µM) SRB screen; type: cell-based, human; conditions: renal cancer, 48 h
OVCAR-5 = experiment: NCI single dose (10 µM) SRB screen; type: cell-based, human; conditions: ovarian cancer, 48 h
Candida albicans = experiment: Agar well diffusion method; conditions: relative to clotrimazole
HL-60(TB) = experiment: NCI single dose (10 µM) SRB screen; type: cell-based, human; conditions: leukaemia, 48 h
NCI-H226 = experiment: NCI single dose (10 µM) SRB screen; type: cell-based, human; conditions: non-small cell lung cancer, 48 h
SF-268 = experiment: NCI single dose (10 µM) SRB screen; type: cell-based, human; conditions: CNS cancer, 48 h
HCC-2998 = experiment: NCI single dose (10 µM) SRB screen; type: cell-based, human; conditions: colon cancer, 48 h
MALME-3M = experiment: NCI single dose (10 µM) SRB screen; type: cell-based, human; conditions: melanoma, 48 h
Escherichia coli = experiment: Agar well diffusion method; conditions: relative to ciprofloxacin
NCI 60 cancer cell lines = experiment: NCI single dose (10 µM) SRB screen, mean over panel; type: cell-based, human; conditions: mean over 60 cell lines, 48 h
RXF 393 = experiment: NCI single dose (10 µM) SRB screen; type: cell-based, human; conditions: renal cancer, 48 h
SK-MEL-28 = experiment: NCI single dose (10 µM) SRB screen; type: cell-based, human; conditions: melanoma, 48 h
Bacillus subtilis = experiment: Agar well diffusion method; conditions: relative to ciprofloxacin
BT-549 = experiment: NCI single dose (10 µM) SRB screen; type: cell-based, human; conditions: breast cancer, 48 h
RPMI-8226 = experiment: NCI single dose (10 µM) SRB screen; type: cell-based, human; conditions: leukaemia, 48 h
NCI/ADR-RES = experiment: NCI single dose (10 µM) SRB screen; type: cell-based, human; conditions: ovarian cancer, 48 h
OVCAR-8 = experiment: NCI single dose (10 µM) SRB screen; type: cell-based, human; conditions: ovarian cancer, 48 h
MDA-MB-435 = experiment: NCI single dose (10 µM) SRB screen; type: cell-based, human; conditions: melanoma, 48 h
MCF7 = experiment: NCI single dose (10 µM) SRB screen; type: cell-based, human; conditions: breast cancer, 48 h
TK-10 = experiment: NCI single dose (10 µM) SRB screen; type: cell-based, human; conditions: renal cancer, 48 h
LOX IMVI = experiment: NCI single dose (10 µM) SRB screen; type: cell-based, human; conditions: melanoma, 48 h
HCT-116 = experiment: NCI single dose (10 µM) SRB screen; type: cell-based, human; conditions: colon cancer, 48 h
SK-MEL-5 = experiment: NCI single dose (10 µM) SRB screen; type: cell-based, human; conditions: melanoma, 48 h
OVCAR-4 = experiment: NCI single dose (10 µM) SRB screen; type: cell-based, human; conditions: ovarian cancer, 48 h
UACC-62 = experiment: NCI single dose (10 µM) SRB screen; type: cell-based, human; conditions: melanoma, 48 h
SK-MEL-2 = experiment: NCI single dose (10 µM) SRB screen; type: cell-based, human; conditions: melanoma, 48 h
SN12C = experiment: NCI single dose (10 µM) SRB screen; type: cell-based, human; conditions: renal cancer, 48 h
NCI-H322M = experiment: NCI single dose (10 µM) SRB screen; type: cell-based; conditions: non-small cell lung cancer, 48 h
PC-3 = experiment: NCI single dose (10 µM) SRB screen; type: cell-based, human; conditions: prostate cancer, 48 h
T-47D = experiment: NCI single dose (10 µM) SRB screen; type: cell-based, human; conditions: breast cancer, 48 h
CAKI-1 = experiment: NCI single dose (10 µM) SRB screen; type: cell-based, human; conditions: renal cancer, 48 h
SF-295 = experiment: NCI single dose (10 µM) SRB screen; type: cell-based, human; conditions: CNS cancer, 48 h
OVCAR-3 = experiment: NCI single dose (10 µM) SRB screen; type: cell-based, human; conditions: ovarian cancer, 48 h
Staphylococcus aureus = experiment: Agar well diffusion method; conditions: relative to ciprofloxacin
MDA-MB-468 = experiment: NCI single dose (10 µM) SRB screen; type: cell-based, human; conditions: breast cancer, 48 h
SNB-19 = experiment: NCI single dose (10 µM) SRB screen; type: cell-based, human; conditions: CNS cancer, 48 h
SNB-75 = experiment: NCI single dose (10 µM) SRB screen; type: cell-based, human; conditions: CNS cancer, 48 h
U251 = experiment: NCI single dose (10 µM) SRB screen; type: cell-based, human; conditions: CNS cancer, 48 h
Pseudomonas aeruginosa = experiment: Agar well diffusion method; conditions: relative to ciprofloxacin
MDA-MB-231 = experiment: NCI single dose (10 µM) SRB screen; type: cell-based, human; conditions: breast cancer, 48 h
SK-OV-3 = experiment: NCI single dose (10 µM) SRB screen; type: cell-based, human; conditions: ovarian cancer, 48 h
HS578T = experiment: NCI single dose (10 µM) SRB screen; type: cell-based, human; conditions: breast cancer, 48 h
A549/ATCC = experiment: NCI single dose (10 µM) SRB screen; type: cell-based, human; conditions: non-small cell lung cancer, 48 h
HOP-92 = experiment: NCI single dose (10 µM) SRB screen; type: cell-based, human; conditions: non-small cell lung cancer, 48 h
UACC-257 = experiment: NCI single dose (10 µM) SRB screen; type: cell-based, human; conditions: melanoma, 48 h
ACHN = experiment: NCI single dose (10 µM) SRB screen; type: cell-based, human; conditions: renal cancer, 48 h
NCI-H23 = experiment: NCI single dose (10 µM) SRB screen; type: cell-based, human; conditions: non-small cell lung cancer, 48 h

CC1=C(C(=O)OC(C)(C)C)C(c2cccc(C#N)c2)C(C(=O)OC(C)(C)C)=C(C)N1 [Compound 1e, Di-tert-butyl 4-(3-cyanophenyl)-2,6-dimethyl-1,4-dihydropyridine-3,5-dicarboxylate]
GI% HT29 (HT29): 13%
GI% IGROV1 (IGROV1): – (Only GI% ≥ 10 are shown)
GI% NCI-H460 (NCI-H460): – (Only GI% ≥ 10 are shown)
GI% SW-620 (SW-620): – (Only GI% ≥ 10 are shown)
GI% CCRF-CEM (CCRF-CEM): 16%
GI% EKVX (EKVX): 20%
% activity index, A. flavus (Aspergillus flavus): – (Values below 25 are of limited value and not shown as they refer either to inactive or non-diffusing compounds)
GI% UO-31 (UO-31): 25%
GI% MOLT-4 (MOLT-4): 39%
GI% SF-539 (SF-539): 10%
GI% M14 (M14): – (Only GI% ≥ 10 are shown)
GI% SR (SR): 42%
GI% DU-145 (DU-145): – (Only GI% ≥ 10 are shown)
GI% KM12 (KM12): 11%
GI% 786-0 (786-0): 18%
GI% NCI-H522 (NCI-H522): 17%
GI% K-562 (K-562): 34%
GI% HCT-15 (HCT-15): 19%
GI% COLO 205 (COLO 205): – (Only GI% ≥ 10 are shown)
GI% HOP-62 (HOP-62): – (Only GI% ≥ 10 are shown)
melting point: 166 to 168 °C
GI% A498 (A498): – (Only GI% ≥ 10 are shown)
GI% OVCAR-5 (OVCAR-5): – (Only GI% ≥ 10 are shown)
% activity index, C. albicans (Candida albicans): – (Values below 25 are of limited value and not shown as they refer either to inactive or non-diffusing compounds)
GI% HL-60(TB) (HL-60(TB)): 41%
GI% NCI-H226 (NCI-H226): 22%
GI% SF-268 (SF-268): 11%
GI% HCC-2998 (HCC-2998): – (Only GI% ≥ 10 are shown)
GI% MALME-3M (MALME-3M): – (Only GI% ≥ 10 are shown)
% activity index, E. coli (Escherichia coli): – (Values below 25 are of limited value and not shown as they refer either to inactive or non-diffusing compounds)
Mean GI% (NCI 60 cancer cell lines): 14%
GI% RXF 393 (RXF 393): 33%
GI% SK-MEL-28 (SK-MEL-28): – (Only GI% ≥ 10 are shown)
% activity index, B. subtilis (Bacillus subtilis): – (Values below 25 are of limited value and not shown as they refer either to inactive or non-diffusing compounds)
GI% BT-549 (BT-549): – (Only GI% ≥ 10 are shown)
GI% RPMI-8226 (RPMI-8226): 39%
GI% NCI/ADR-RES (NCI/ADR-RES): – (Only GI% ≥ 10 are shown)
GI% OVCAR-8 (OVCAR-8): – (Only GI% ≥ 10 are shown)
GI% MDA-MB-435 (MDA-MB-435): – (Only GI% ≥ 10 are shown)
GI% MCF7 (MCF7): 34%
GI% TK-10 (TK-10): – (Only GI% ≥ 10 are shown)
GI% LOX IMVI (LOX IMVI): 10%
GI% HCT-116 (HCT-116): 35%
GI% SK-MEL-5 (SK-MEL-5): 14%
GI% OVCAR-4 (OVCAR-4): – (Only GI% ≥ 10 are shown)
GI% UACC-62 (UACC-62): 26%
GI% SK-MEL-2 (SK-MEL-2): – (Only GI% ≥ 10 are shown)
GI% SN12C (SN12C): – (Only GI% ≥ 10 are shown)
GI% NCI-H322M (NCI-H322M): – (Only GI% ≥ 10 are shown)
GI% PC-3 (PC-3): 48%
GI% T-47D (T-47D): 53%
GI% CAKI-1 (CAKI-1): 32%
GI% SF-295 (SF-295): 27%
GI% OVCAR-3 (OVCAR-3): – (Only GI% ≥ 10 are shown)
% activity index, S. aureus (Staphylococcus aureus): – (Values below 25 are of limited value and not shown as they refer either to inactive or non-diffusing compounds)
GI% MDA-MB-468 (MDA-MB-468): 27%
GI% SNB-19 (SNB-19): – (Only GI% ≥ 10 are shown)
GI% SNB-75 (SNB-75): 38%
GI% U251 (U251): – (Only GI% ≥ 10 are shown)
% activity index, P. aeruginosa (Pseudomonas aeruginosa): – (Values below 25 are of limited value and not shown as they refer either to inactive or non-diffusing compounds)
GI% MDA-MB-231 (MDA-MB-231): 14%
GI% SK-OV-3 (SK-OV-3): – (Only GI% ≥ 10 are shown)
GI% HS578T (HS578T): – (Only GI% ≥ 10 are shown)
GI% A549/ATCC (A549/ATCC): 20%
GI% HOP-92 (HOP-92): 30%
GI% UACC-257 (UACC-257): 16%
GI% ACHN (ACHN): 14%
GI% NCI-H23 (NCI-H23): 13%
